Data taken from patent US6737383B1, “Herbicidal oxadiazolidines” (priority 1999, dated 2004).

What was measured:
rape = assay: Test B pre/postemergence rape; type: in vivo, Brassica napus
Description: (§1) Seeds of bedstraw (Galium aparine), blackgrass (Alopecurus myosuroides), surinam grass (Brachiaria decumbens), cocklebur (Xanthium strumarium), corn (Zea mays), crabgrass (Digitaria sanguinalis), giant foxtail (Setaria faberii), morningglory (Ipomoea hederacea), pigweed (Amaranthus retroflexus), rape (Brassica napus), soybean (Glycine max), sugar beet (Beta vulgaris), velvetleaf (Abutilon theophrasti), wheat (Triticum aestivum), wild oat (Avena fatua) and purple nutsedge (Cyperus rotundus) tubers were planted and treated preemnergence with test chemicals formulated in a non-phytotoxic solvent mixture which included a surfactant.
(§2) At the same time, these crop and weed species were also treated with postemergence applications of test chemicals formulated in the same manner. Plants ranged in height from 2 to 18 cm (1- to 4-leaf stage) for postemergence treatments. Plant species in the flood test consisted of rice (Oryza sativa), smallflower flatsedge (Cyperus difformis), duck salad (Heteranthera limosa) and bamyardgrass (Echinochloa crus-galli) grown to the 2-leaf stage for testing. Treated plants and controls were maintained in a greenhouse for twelve to sixteen days, after which all species were compared to controls and visually evaluated. Plant response ratings, summarized in Table B, are based on a scale of 0 to 10 where 0 is no effect and 10 is complete control. A dash (−) response means no test result.

purple nutsedge = assay: Test B pre/postemergence purple nutsedge; type: in vivo, Cyperus rotundus
Description: as §1, §2

wild oat = assay: Test B pre/postemergence wild oat; type: in vivo, Avena fatua
Description: as §1, §2

surinam grass = assay: Test B pre/postemergence surinam grass; type: in vivo, Brachiaria decumbens
Description: as §1, §2

corn = assay: Test B pre/postemergence corn; type: in vivo, Zea mays
Description: as §1, §2

bedstraw = assay: Test B pre/postemergence bedstraw; type: in vivo, Galium aparine
Description: as §1, §2

crabgrass = assay: Test B pre/postemergence crabgrass; type: in vivo, Digitaria sanguinalis
Description: as §1, §2

giant foxtail = assay: Test B pre/postemergence giant foxtail; type: in vivo, Setaria faberii
Description: as §1, §2

wheat = assay: Test B pre/postemergence wheat; type: in vivo, Triticum aestivum
Description: as §1, §2

velvetleaf = assay: Test B pre/postemergence velvetleaf; type: in vivo, Abutilon theophrasti
Description: as §1, §2

sugar beet = assay: Test B pre/postemergence sugar beet; type: in vivo, Beta vulgaris
Description: as §1, §2

soybean = assay: Test B pre/postemergence soybean; type: in vivo, Glycine max
Description: as §1, §2

morningglory = assay: Test B pre/postemergence morningglory; type: in vivo, Ipomoea hederacea
Description: as §1, §2

blackgrass = assay: Test B pre/postemergence blackgrass; type: in vivo, Alopecurus myosuroides
Description: as §1, §2

pigweed = assay: Test B pre/postemergence pigweed; type: in vivo, Amaranthus retroflexus
Description: as §1, §2

cocklebur = assay: Test B pre/postemergence cocklebur; type: in vivo, Xanthium strumarium
Description: as §1, §2

[1] = Postemergence, Rate 62 g/ha, scale 0 to 10, 0 is no effect, 10 is complete control
[2] = Postemergence, Rate 125 g/ha, scale of 0 to 10 where 0 is no effect and 10 is complete control
[3] = Preemergence, Rate 125 g/ha, scale of 0 to 10 where 0 is no effect and 10 is complete control
[4] = Preemergence, Rate 250 g/ha, scale 0 (no effect) to 10 (complete control)
[5] = Rate 62 g/ha, Preemergence, scale 0 to 10
[6] = Rate 250 g/ha, Postemergence, scale 0 to 10, 0 is no effect, 10 is complete control
[7] = Rate 500 g/ha, Postemergence, scale 0 to 10, 0 is no effect, 10 is complete control
[8] = Rate 500 g/ha, Preemergence, scale 0 to 10 (0 no effect, 10 complete control)
[9] = Preemergence, Rate 62 g/ha, scale of 0 to 10 where 0 is no effect and 10 is complete control
[10] = Preemergence, Rate 250 g/ha, scale 0 to 10 (0 no effect, 10 complete control)
[11] = Preemergence, Rate 500 g/ha, scale of 0 to 10 where 0 is no effect and 10 is complete control

CC(C)N(C(=O)n1oc(=O)n(C(C)C2=NOCC2)c1=O)c1ccc(Cl)cc1 (racemic) [Compound 759]
10: Giant foxtail plant response rating (giant foxtail; [4]) | Giant foxtail plant response rating (giant foxtail; [8])
7: B. signalgrass plant response rating (surinam grass; [7]) | Plant response rating, Crabgrass (crabgrass; [3]) | Crabgrass plant response rating (crabgrass; [5]) | Blackgrass plant response rating (blackgrass; [6])
4: Rape plant response rating (rape; [8]) | Plant response rating, Wild oats (wild oat; [3]) | Crabgrass plant response rating (crabgrass; [2]) | Sugarbeets plant response rating (sugar beet; [4]) | Morningglory plant response rating (morningglory; [7]) | Plant response rating, Blackgrass (blackgrass; [1]) | Blackgrass plant response rating (blackgrass; [5]) | Redroot pigweed plant response rating (pigweed; [7]) | Redroot pigweed plant response rating (pigweed; [8])
9: Crabgrass plant response rating (crabgrass; [8]) | Plant response rating, Giant foxtail (giant foxtail; [3]) | Giant foxtail plant response rating (giant foxtail; [5])
3: Wild oats plant response rating (wild oat; [7]) | B. signalgrass plant response rating (surinam grass; [2]) | B. signalgrass plant response rating (surinam grass; [9]) | Plant response rating, B. signalgrass (surinam grass; [3]) | Plant response rating, Giant foxtail (giant foxtail; [1]) | Wheat plant response rating (wheat; [4]) | Plant response rating, Soybean (soybean; [1]) | Soybean plant response rating (soybean; [6]) | Soybean plant response rating (soybean; [7]) | Plant response rating, Morningglory (morningglory; [1]) | Morningglory plant response rating (morningglory; [2]) | Morningglory plant response rating (morningglory; [6]) | Redroot pigweed plant response rating (pigweed; [4])
6: B. signalgrass plant response rating (surinam grass; [6]) | Velvetleaf plant response rating (velvetleaf; [6]) | Velvetleaf plant response rating (velvetleaf; [7])
2: Wild oats plant response rating (wild oat; [6]) | Plant response rating, Crabgrass (crabgrass; [1]) | Plant response rating, Wheat (wheat; [3]) | Plant response rating, Velvetleaf (velvetleaf; [1]) | Plant response rating, Redroot pigweed (pigweed; [3]) | Cocklebur plant response rating (cocklebur; [7])
0: Plant response rating, Rape (rape; [1]) | Rape plant response rating (rape; [2]) | Plant response rating, Rape (rape; [3]) | Rape plant response rating (rape; [4]) | Rape plant response rating (rape; [5]) | Rape plant response rating (rape; [6]) | Rape plant response rating (rape; [7]) | Plant response rating, Nutsedge (purple nutsedge; [1]) | Nutsedge plant response rating (purple nutsedge; [2]) | Plant response rating, Nutsedge (purple nutsedge; [3]) | Nutsedge plant response rating (purple nutsedge; [4]) | Nutsedge plant response rating (purple nutsedge; [5]) | Nutsedge plant response rating (purple nutsedge; [6]) | Nutsedge plant response rating (purple nutsedge; [7]) | Nutsedge plant response rating (purple nutsedge; [8]) | Plant response rating, Wild oats (wild oat; [1]) | Wild oats plant response rating (wild oat; [5]) | Plant response rating, B. signalgrass (surinam grass; [1]) | Plant response rating, Corn (corn; [1]) | Corn plant response rating (corn; [2]) | Plant response rating, Corn (corn; [3]) | Corn plant response rating (corn; [4]) | Corn plant response rating (corn; [5]) | Corn plant response rating (corn; [6]) | Corn plant response rating (corn; [7]) | Corn plant response rating (corn; [8]) | Plant response rating, Bedstraw (bedstraw; [1]) | Plant response rating, Bedstraw (bedstraw; [3]) | Bedstraw plant response rating (bedstraw; [4]) | Bedstraw plant response rating (bedstraw; [5]) | Bedstraw plant response rating (bedstraw; [8]) | Plant response rating, Wheat (wheat; [1]) | Wheat plant response rating (wheat; [5]) | Wheat plant response rating (wheat; [6]) | Wheat plant response rating (wheat; [7]) | Plant response rating, Velvetleaf (velvetleaf; [3]) | Velvetleaf plant response rating (velvetleaf; [4]) | Velvetleaf plant response rating (velvetleaf; [5]) | Velvetleaf plant response rating (velvetleaf; [8]) | Plant response rating, Sugarbeets (sugar beet; [1]) | Plant response rating, Sugarbeets (sugar beet; [3]) | Sugarbeets plant response rating (sugar beet; [5]) | Sugarbeets plant response rating (sugar beet; [6]) | Sugarbeets plant response rating (sugar beet; [7]) | Plant response rating, Soybean (soybean; [3]) | Soybean plant response rating (soybean; [4]) | Soybean plant response rating (soybean; [5]) | Soybean plant response rating (soybean; [8]) | Plant response rating, Morningglory (morningglory; [3]) | Morningglory plant response rating (morningglory; [4]) | Morningglory plant response rating (morningglory; [5]) | Morningglory plant response rating (morningglory; [8]) | Plant response rating, Redroot pigweed (pigweed; [1]) | Redroot pigweed plant response rating (pigweed; [2]) | Redroot pigweed plant response rating (pigweed; [5]) | Redroot pigweed plant response rating (pigweed; [6]) | Plant response rating, Cocklebur (cocklebur; [1]) | Cocklebur plant response rating (cocklebur; [2]) | Plant response rating, Cocklebur (cocklebur; [3]) | Cocklebur plant response rating (cocklebur; [4]) | Cocklebur plant response rating (cocklebur; [5]) | Cocklebur plant response rating (cocklebur; [8])
1: Cocklebur plant response rating (cocklebur; [6])
5: Wild oats plant response rating (wild oat; [4]) | Giant foxtail plant response rating (giant foxtail; [2]) | Sugarbeets plant response rating (sugar beet; [8]) | Blackgrass plant response rating (blackgrass; [2]) | Plant response rating, Blackgrass (blackgrass; [3]) | Blackgrass plant response rating (blackgrass; [4])
8: Wild oats plant response rating (wild oat; [8]) | B. signalgrass plant response rating (surinam grass; [4]) | B. signalgrass plant response rating (surinam grass; [8]) | Crabgrass plant response rating (crabgrass; [4]) | Crabgrass plant response rating (crabgrass; [6]) | Crabgrass plant response rating (crabgrass; [7]) | Giant foxtail plant response rating (giant foxtail; [6]) | Giant foxtail plant response rating (giant foxtail; [7]) | Wheat plant response rating (wheat; [8]) | Blackgrass plant response rating (blackgrass; [7]) | Blackgrass plant response rating (blackgrass; [8])

CC(C)N(C(=O)n1oc(=O)n(C(C)C2CC2)c1=O)c1ccc(Cl)cc1 (stereo not shown) [Compound 700]
4: Wild oats plant response rating (wild oat; [9]) | B. signalgrass plant response rating (surinam grass; [9]) | Blackgrass plant response rating (blackgrass; [9])
10: Plant response rating, B. signalgrass (surinam grass; [11]) | Crabgrass plant response rating (crabgrass; [9]) | Plant response rating, Crabgrass (crabgrass; [10]) | Giant foxtail plant response rating (giant foxtail; [9]) | Plant response rating, Blackgrass (blackgrass; [11])
8: Plant response rating, B. signalgrass (surinam grass; [10]) | Plant response rating, Bedstraw (bedstraw; [11]) | Plant response rating, Blackgrass (blackgrass; [10])
0: Rape plant response rating (rape; [9]) | Corn plant response rating (corn; [9]) | Bedstraw plant response rating (bedstraw; [9]) | Plant response rating, Bedstraw (bedstraw; [10]) | Wheat plant response rating (wheat; [9]) | Velvetleaf plant response rating (velvetleaf; [9]) | Sugarbeets plant response rating (sugar beet; [9]) | Soybean plant response rating (soybean; [9]) | Morningglory plant response rating (morningglory; [9]) | Redroot pigweed plant response rating (pigweed; [9]) | Cocklebur plant response rating (cocklebur; [9]) | Plant response rating, Cocklebur (cocklebur; [10]) | Plant response rating, Cocklebur (cocklebur; [11])
3: Plant response rating, Corn (corn; [10])
